{"source": "patent EP0373543A2", "about": "“Diagnostic media and assay for detecting fungicide resistance” (BASF Corporation, priority 1988, dated 1990)", "tested_on": "Botrytis cinerea", "assay": "Color change diameter on bromothymol blue diagnostic media at pH 7.5-8.5 (Example 3)", "type": "cell-based", "parameters": "key: T = only slight color change", "description": "Diagnostic media was prepared substantially as described above in Preparation Example 1 except that bromothymol blue rather than bromcresol purple and only 4 g of dextrose was used per liter and the pH adjusted to 7.5, 8.0 and 8.5. These media were then inoculated with spores of either Botrytis cinerea or Rhizopus nigricans isolates substantially as previously described. The inoculated media was then incubated for 18 hours at room temperature and the results recorded below in Table III."}
{"smiles": "C=CC1(C)OC(=O)N(c2cc(Cl)cc(Cl)c2)C1=O", "note": "(stereo not drawn) [vinclozolin]", "values": [{"measurement": "DIAMETER OF COLOR CHANGE", "setting": "isolate BC B sens., pH 7.5, 18 hours", "result": 0, "unit": "mm"}, {"measurement": "DIAMETER OF COLOR CHANGE", "setting": "isolate BC B sens., pH 8.0, 18 hours", "result": 0, "unit": "mm"}, {"measurement": "DIAMETER OF COLOR CHANGE", "setting": "isolate BC B sens., pH 8.5, 18 hours", "result": 0, "unit": "mm"}, {"measurement": "DIAMETER OF COLOR CHANGE", "setting": "isolate BC-1 res., pH 7.5, 18 hours", "result": 12, "unit": "mm"}, {"measurement": "DIAMETER OF COLOR CHANGE", "setting": "isolate BC-1 res., pH 8.0, 18 hours", "result": 6, "unit": "mm"}, {"measurement": "DIAMETER OF COLOR CHANGE", "setting": "isolate BC-1 res., pH 8.5, 18 hours", "result": 0, "unit": "mm"}, {"measurement": "DIAMETER OF COLOR CHANGE", "setting": "isolate BC-2 res., pH 7.5, 18 hours", "result": 12, "unit": "mm"}, {"measurement": "DIAMETER OF COLOR CHANGE", "setting": "isolate BC-2 res., pH 8.0, 18 hours", "result": 6, "unit": "mm"}, {"measurement": "DIAMETER OF COLOR CHANGE", "setting": "isolate BC-2 res., pH 8.5, 18 hours", "result": "T"}, {"measurement": "DIAMETER OF COLOR CHANGE", "setting": "isolate BC-3 res., pH 7.5, 18 hours", "result": 18, "unit": "mm"}, {"measurement": "DIAMETER OF COLOR CHANGE", "setting": "isolate BC-3 res., pH 8.0, 18 hours", "result": 12, "unit": "mm"}, {"measurement": "DIAMETER OF COLOR CHANGE", "setting": "isolate BC-3 res., pH 8.5, 18 hours", "result": 12, "unit": "mm"}, {"measurement": "DIAMETER OF COLOR CHANGE", "setting": "isolate BC-4 res., pH 7.5, 18 hours", "result": 12, "unit": "mm"}, {"measurement": "DIAMETER OF COLOR CHANGE", "setting": "isolate BC-4 res., pH 8.0, 18 hours", "result": 12, "unit": "mm"}, {"measurement": "DIAMETER OF COLOR CHANGE", "setting": "isolate BC-4 res., pH 8.5, 18 hours", "result": 12, "unit": "mm"}, {"measurement": "DIAMETER OF COLOR CHANGE", "setting": "isolate BC-5 res., pH 7.5, 18 hours", "result": 6, "unit": "mm"}, {"measurement": "DIAMETER OF COLOR CHANGE", "setting": "isolate BC-5 res., pH 8.0, 18 hours", "result": 3, "unit": "mm"}, {"measurement": "DIAMETER OF COLOR CHANGE", "setting": "isolate BC-5 res., pH 8.5, 18 hours", "result": 6, "unit": "mm"}, {"measurement": "DIAMETER OF COLOR CHANGE", "setting": "isolate BC-6 resistant, pH 7.5, 18 hours", "result": 6, "unit": "mm"}, {"measurement": "DIAMETER OF COLOR CHANGE", "setting": "isolate BC-6 resistant, pH 8.0, 18 hours", "result": 3, "unit": "mm"}, {"measurement": "DIAMETER OF COLOR CHANGE", "setting": "isolate BC-6 resistant, pH 8.5, 18 hours", "result": 6, "unit": "mm"}, {"measurement": "DIAMETER OF COLOR CHANGE", "setting": "isolate BC-A sensitive, pH 7.5, 18 hours", "result": 0, "unit": "mm"}, {"measurement": "DIAMETER OF COLOR CHANGE", "setting": "isolate BC-A sensitive, pH 8.0, 18 hours", "result": 0, "unit": "mm"}, {"measurement": "DIAMETER OF COLOR CHANGE", "setting": "isolate BC-A sensitive, pH 8.5, 18 hours", "result": 0, "unit": "mm"}, {"measurement": "DIAMETER OF COLOR CHANGE", "setting": "isolate BC-C sens., pH 7.5, 18 hours", "result": "T"}, {"measurement": "DIAMETER OF COLOR CHANGE", "setting": "isolate BC-C sens., pH 8.0, 18 hours", "result": 0, "unit": "mm"}, {"measurement": "DIAMETER OF COLOR CHANGE", "setting": "isolate BC-C sens., pH 8.5, 18 hours", "result": 0, "unit": "mm"}, {"measurement": "DIAMETER OF COLOR CHANGE", "setting": "isolate BC-D sens., pH 7.5, 18 hours", "result": "T"}, {"measurement": "DIAMETER OF COLOR CHANGE", "setting": "isolate BC-D sens., pH 8.0, 18 hours", "result": 0, "unit": "mm"}, {"measurement": "DIAMETER OF COLOR CHANGE", "setting": "isolate BC-D sens., pH 8.5, 18 hours", "result": 0, "unit": "mm"}]}
